According to patent US20260138959A1, “QUINAZOLINE DERIVATIVE COMPOUND AND USE THEREOF” (VORONOI INC., priority 2021, published 2026):

Columns and labels:
human PDGFR-β(wt) = target: T1, human PDGFR-β(wt) (Homo sapiens, UniProt P09619); assay: Enzyme inhibitory activity, ADP-Glo kinase assay, PDGFR-β(wt); assay type: biochemical; details: read-out: PDGFR-β (IC50 class)
T1 construct: purchased Signalchem P13-11G
Method in brief: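 Purified human kinases incubated with ATP and substrate 1–2 h at 25 °C in 40 mM Tris-HCl pH 7.4, 20 mM MgCl2, BSA, DTT, compound over 12 concentrations (10–0.00005645 μM final). ADP formed quantified by ADP-Glo luminescence; IC50 from inhibition versus DMSO control, reported in bins A–D.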

Ba/F3-c-KIT(D816V) = assay: Proliferation inhibitory activity on Ba/F3 cell (CellTiter-Glo, 72 hours), c-KIT(D816V); assay type: cell-based; details: Mus musculus, BaF3, read-out: Ba/F3 (nM) c-KIT (D816V) (GI50 class)
Method in brief: (§1)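 Viability was read by CellTiter-Glo after 72 h compound exposure at 37 °C, and GI50 values (nM) were derived from percent of vehicle-treated growth. Ba/F3 cells transformed with TEL-PDGFRα/β or mutant c-KIT were plated at 3×10^3 per well. Final compound range was 0.00005-10 μM in 12 threefold steps.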

human PDGFR-α(wt) = target: T2, human PDGFR-α(wt) (Homo sapiens, UniProt P16234); assay: Enzyme inhibitory activity, ADP-Glo kinase assay, PDGFR-α(wt); assay type: biochemical; details: read-out: PDGFR-α (IC50 class)
T2 construct: purchased Signalchem P12-18G
Method: In order to evaluate the inhibitory activity of the compounds synthesized according to the above examples on PDGFR-α(wt), PDGFR-β(wt), c-KIT(wt), and c-KIT(D816V) kinases, the following method was performed. The compounds of examples were reacted with purified human PDGFR-α(wt) (Signalchem #P12-18G) enzyme, human PDGFR-β(wt) (Signalchem #P13-11G) enzyme, human c-KIT(wt) (Signalchem #K06-11BG) enzyme, human c-KIT(D816V) (Signalchem #C06-12LG) enzyme, and the enzyme inhibitory abilities were evaluated by the following method.
The reaction buffer was used as a composition of 40 mM Tris-HCl pH7.4, 20 mM MgCl2, 0.5 mg/ml BSA, 50 μM DTT, and the reactions of all the tests were carried out on the reaction buffer. The compound was diluted in 12 steps using a serial dilution method from a 10 mM DMSO stock, and the enzyme activity was measured at a final compound concentration of 10˜0.00005645 μM. During the test, the enzyme activity was confirmed using in vitro ADP-Glo™ kinase assay (Promega) after reacting with the proper concentration of human PDGFR-α(wt) enzyme, human PDGFR-β(wt), human c-KIT(wt) enzyme, and human c-KIT(D816V) enzyme with purified ATP and enzyme substrate at 25° C. for 1˜2 hours. At a ratio of 2:2:1, an enzyme-active reaction solution, an ADP-Glo reaction solution, and an enzyme-active detection solution were reacted to measure the inhibition of the enzyme's activity with luminoscence. Based on the […] of the enzyme activity of the solvent control that was not treated with the compound, the degree of enzyme activity inhibition was calculated according to the treatment concentration of each compound, and the concentration of each compound that inhibits 50% of enzyme activity was determined as IC50 (nM) value and the value was obtained by using GraphPad Prism 8.3.0 (GraphPad software Inc., San Diego) software. (A: IC50≤50 nM; B: 50 nM<IC50≤100 nM; C: 100 nM<IC50≤500 nM; D: IC50>500 nM).

Ba/F3-TEL-PDGFβ(WT) = assay: Proliferation inhibitory activity on Ba/F3 cell (CellTiter-Glo, 72 hours), PDGFR-β; assay type: cell-based; details: Mus musculus, BaF3, read-out: Ba/F3 (nM) Tel-PDGFRβ (GI50 class)
Method: (§2) Ba/F3-TEL-PDGFRα(WT), Ba/F3-TEL-PDGFβ(WT), Ba/F3-c-KIT(D816V) (Kyinno, #KC-0138), c-KIT V560G/D816V, c-KIT D814Y were seeded at 3×10^3/100 μl/well in a clear bottom white 96-well plate. A culture solution containing compounds of 12 concentrations (0.00001-2 mM) serially diluted in 3 folds and the DMSO control group was added at 0.5 μl/well each to a final concentration of 0.00005-10 μM, and then incubated in a CO2 incubator at 37° C. for 72 hours. After 72 hours, the plate treated with the compound was taken out, CellTiter-Glo® Assay (Promega) solution was treated with 100 μl/well, followed by mixing well. After mixing well for about 10 minutes at room temperature, […] was measured using a microplate reader. The data were presented as percentages in proportion to treated cells based on the vehicle, GI50 (nM) values were calculated using GraphPad Prism 8.3.0 (GraphPad software Inc., San Diego).
(§3) The inhibitory activities of Ba/F3 expressing PDGFR-α, PDGFR-β, c-KIT(D816V), c-KIT V560G/D816V, and c-KIT D814Y measured as described above were measured and shown in Table 7 below (A: GI50≤200 nM; B: 200 nM<GI50≤500 nM; C: GI50>500 nM).

Ba/F3-TEL-PDGFRα(WT) = assay: Proliferation inhibitory activity on Ba/F3 cell (CellTiter-Glo, 72 hours), PDGFR-α; assay type: cell-based; details: Mus musculus, BaF3, read-out: Ba/F3 (nM) Tel-PDGFRα (GI50 class)
Method: as §2, §3

c-KIT V560G/D816V = assay: Proliferation inhibitory activity on Ba/F3 cell (CellTiter-Glo, 72 hours), c-KIT V560G/D816V; assay type: cell-based; details: Mus musculus, BaF3, c-KIT V560G/D816V cells, read-out: Cell (nM) c-KIT V560G/D816V (GI50 class)
Method in brief: as §1

c-KIT D814Y = assay: Proliferation inhibitory activity on Ba/F3 cell (CellTiter-Glo, 72 hours), c-KIT D814Y; assay type: cell-based; details: Mus musculus, BaF3, c-KIT D814Y cells, read-out: Cell (nM) c-KIT D814Y (GI50 class)
Method: as §2, §3

various kinases = assay: Inhibitory activity against various kinases, DiscoverX scanMAX Kinase panel, % control at 1 μM; assay type: binding
Method: The activities of the compounds according to the present disclosure on various enzymes were evaluated. Specifically, it was commissioned DiscoverX to measure enzyme selectivity for the compounds of Examples 3, 9, and 83 above, and the experiment was conducted using a panel for scanMAX™ Kinase analysis. Herein, a solution prepared by dissolving in DMSO at a concentration of 1 μM was used as the drug treated with the enzyme, and the control percentage (% control) was determined by the method of Equation 1 below, and the results are shown in Table 8 below.
Herein, when the calculated percentage value for each enzyme was less than 35%, it was determined to have inhibitory activity for the enzyme. Accordingly, among the series of enzymes tested, the enzymes showing the inhibitory activities of the compounds of the present disclosure are summarized and shown in Table 8 below along with the control percentages thereof. (©): less than 10%; ◯: 10% or more to less than 35%).

T1 sequence (P09619 33-1106): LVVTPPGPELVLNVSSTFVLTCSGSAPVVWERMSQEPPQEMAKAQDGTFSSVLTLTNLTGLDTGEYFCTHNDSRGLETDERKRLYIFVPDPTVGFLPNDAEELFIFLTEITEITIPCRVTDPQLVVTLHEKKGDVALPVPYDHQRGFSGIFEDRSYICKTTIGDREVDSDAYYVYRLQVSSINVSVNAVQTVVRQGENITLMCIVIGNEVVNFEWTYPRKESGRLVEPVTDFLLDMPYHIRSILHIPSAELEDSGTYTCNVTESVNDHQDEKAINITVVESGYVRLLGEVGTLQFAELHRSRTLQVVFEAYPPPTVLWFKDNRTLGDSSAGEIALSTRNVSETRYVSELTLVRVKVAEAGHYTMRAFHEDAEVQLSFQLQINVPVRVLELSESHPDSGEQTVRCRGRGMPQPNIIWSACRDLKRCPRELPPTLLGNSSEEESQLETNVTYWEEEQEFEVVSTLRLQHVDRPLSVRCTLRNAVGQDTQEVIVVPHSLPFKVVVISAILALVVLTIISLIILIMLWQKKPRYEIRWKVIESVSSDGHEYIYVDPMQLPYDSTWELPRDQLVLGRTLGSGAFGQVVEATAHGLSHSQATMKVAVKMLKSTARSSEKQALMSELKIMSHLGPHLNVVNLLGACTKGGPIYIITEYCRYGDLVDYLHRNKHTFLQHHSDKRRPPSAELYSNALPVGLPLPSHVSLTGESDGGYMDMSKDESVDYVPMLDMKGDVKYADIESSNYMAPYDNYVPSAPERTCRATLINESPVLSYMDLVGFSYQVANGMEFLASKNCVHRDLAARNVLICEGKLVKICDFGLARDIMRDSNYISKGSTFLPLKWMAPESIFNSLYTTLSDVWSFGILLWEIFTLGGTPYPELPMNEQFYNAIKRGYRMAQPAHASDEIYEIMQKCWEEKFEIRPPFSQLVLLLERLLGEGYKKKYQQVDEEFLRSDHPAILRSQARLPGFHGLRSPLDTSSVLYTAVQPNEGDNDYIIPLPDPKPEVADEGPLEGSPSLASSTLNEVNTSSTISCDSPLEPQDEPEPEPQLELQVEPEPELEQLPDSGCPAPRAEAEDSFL
T2 sequence (P16234 24-1089): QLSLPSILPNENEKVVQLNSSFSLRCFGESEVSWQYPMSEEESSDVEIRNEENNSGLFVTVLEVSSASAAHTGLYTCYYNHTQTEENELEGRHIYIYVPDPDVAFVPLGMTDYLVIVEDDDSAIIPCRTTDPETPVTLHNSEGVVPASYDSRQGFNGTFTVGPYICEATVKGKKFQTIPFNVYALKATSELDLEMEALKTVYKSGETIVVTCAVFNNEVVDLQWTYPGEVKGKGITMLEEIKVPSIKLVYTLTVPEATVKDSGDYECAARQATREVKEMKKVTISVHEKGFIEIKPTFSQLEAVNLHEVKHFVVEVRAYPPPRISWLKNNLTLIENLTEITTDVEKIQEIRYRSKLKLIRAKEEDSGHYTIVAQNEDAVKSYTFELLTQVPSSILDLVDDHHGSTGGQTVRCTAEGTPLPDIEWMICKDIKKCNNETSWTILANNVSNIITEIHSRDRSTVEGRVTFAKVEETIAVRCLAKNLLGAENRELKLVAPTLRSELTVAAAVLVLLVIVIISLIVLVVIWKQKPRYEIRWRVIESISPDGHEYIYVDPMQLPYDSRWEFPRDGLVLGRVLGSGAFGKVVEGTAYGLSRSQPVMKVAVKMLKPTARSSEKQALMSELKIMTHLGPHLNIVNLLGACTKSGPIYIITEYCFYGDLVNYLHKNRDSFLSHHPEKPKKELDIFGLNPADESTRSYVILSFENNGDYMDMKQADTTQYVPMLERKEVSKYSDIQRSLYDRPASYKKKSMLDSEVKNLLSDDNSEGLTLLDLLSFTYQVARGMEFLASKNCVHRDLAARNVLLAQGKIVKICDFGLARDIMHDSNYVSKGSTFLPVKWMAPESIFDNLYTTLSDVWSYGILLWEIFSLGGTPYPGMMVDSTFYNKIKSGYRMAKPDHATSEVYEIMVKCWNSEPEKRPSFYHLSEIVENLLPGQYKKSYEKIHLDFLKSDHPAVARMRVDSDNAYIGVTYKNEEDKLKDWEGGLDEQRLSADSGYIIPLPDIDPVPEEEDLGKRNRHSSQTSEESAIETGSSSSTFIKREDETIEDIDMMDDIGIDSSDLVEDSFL

SMILES | IC50 (human PDGFR-β(wt)) [nM] | GI50 (Ba/F3-c-KIT(D816V)) [nM] | IC50 (human PDGFR-α(wt)) [nM] | GI50 (Ba/F3-TEL-PDGFβ(WT)) [nM] | GI50 (Ba/F3-TEL-PDGFRα(WT)) [nM] | GI50 (c-KIT V560G/D816V) [nM] | GI50 (c-KIT D814Y) [nM] | further results
COc1cc2c(-c3ccc(NC(=O)C(C)(N)c4ccc(F)cc4)cc3)ncnc2cc1OCC(C)C (stereo not drawn) [Example 10, 2-amino-2-(4-fluorophenyl)-N-(4-(7-isobutoxy-6-methoxyquinazolin-4-yl)phenyl)propanamide] | 100 to 500 | ≤ 200 | ≤ 50 | 200 to 500 | ≤ 200 | > 500 |  | 
COc1cc2c(-c3ccc(NC(=O)Cc4ccc(C(F)(F)F)cc4)cc3)ncnc2cc1OCCCN1CC(N(C)C)C1 [Example 22, N-(4-(7-(3-(3-(dimethylamino)azetidine-1-yl)propoxy)-6-methoxyquinazolin-4-yl)phenyl)-2-(4-(trifluoromethyl)phenyl)acetamide] |  | ≤ 200 |  |  |  | ≤ 200 | ≤ 200 | 
COCCOc1cc2ncnc(-c3ccc(NC(=O)C(C)(N)c4ccc(F)cc4)cc3)c2cc1OCCOC (stereo not drawn) [Example 58, 2-amino-N-(4-(6,7-bis(2-methoxyethoxy)quinazolin-4-yl)phenyl)-2-(4-fluorophenyl)propanamide] | ≤ 50 | ≤ 200 | ≤ 50 | ≤ 200 | ≤ 200 | > 500 |  | 
CCN1CCC(COc2cc3ncnc(-c4ccc(NC(=O)CCc5ccccc5)cc4)c3cc2OC)CC1 [Example 72, N-(4-(7-((1-ethylpiperidin-4-yl)methoxy)-6-methoxyquinazolin-4-yl)phenyl)-3-phenylpropanamide] | ≤ 50 | ≤ 200 | ≤ 50 | ≤ 200 | ≤ 200 | ≤ 200 |  | 
COc1cc2c(-c3ccc(NC(=O)Cc4ccc(C#N)cc4)cc3)ncnc2cc1OCCCN1CCN(C)CC1 [Example 83, 2-(4-cyanophenyl)-N-(4-(6-methoxy-7-(3-(4-methylpiperazin-1-yl)propoxy)quinazolin-4-yl)phenyl)acetamide] | ≤ 50 | ≤ 200 | ≤ 50 | ≤ 200 | ≤ 200 | ≤ 200 |  | control percentage (% control), KIT (various kinases; KIT): ⊚; control percentage (% control), KIT (A829P) (various kinases; KIT (A829P)): ⊚; control percentage (% control), KIT (D816H) (various kinases; KIT (D816H)): ⊚; control percentage (% control), KIT (D816V) (various kinases; KIT (D816V)): ⊚; control percentage (% control), KIT (L576P) (various kinases; KIT (L576P)): ⊚; control percentage (% control), KIT (V559D) (various kinases; KIT (V559D)): ⊚; control percentage (% control), KIT (V559D, T670I) (various kinases; KIT (V559D, T670I)): ◯ (◯: 10% or more to less than 35%); control percentage (% control), KIT (V559D, V654A) (various kinases; KIT (V559D, V654A)): ◯ (◯: 10% or more to less than 35%); control percentage (% control), PDGFRA (various kinases; PDGFRA): ⊚; control percentage (% control), PDGFRB (various kinases; PDGFRB): ⊚
COc1cc2c(-c3ccc(NC(=O)Cc4ccsc4)cc3)ncnc2cc1OCCCN1CCN(C)CC1 [Example 84, N-(4-(6-methoxy-7-(3-(4-methylpiperazin-1-yl)propoxy)quinazolin-4-yl)phenyl)-2-(thiophene-3-yl)acetamide] | ≤ 50 | ≤ 200 | ≤ 50 | ≤ 200 | ≤ 200 | ≤ 200 |  | 
COc1cc2c(-c3ccc(NC(=O)Cc4ccc5c(c4)CCO5)cc3)ncnc2cc1OCCCN1CCN(C)CC1 [Example 85, 2-(2,3-dihydrobenzofuran-5-yl)-N-(4-(6-methoxy-7-(3-(4-methylpiperazin-1-yl)propoxy)quinazolin-4-yl)phenyl)acetamide] | ≤ 50 | ≤ 200 | ≤ 50 | ≤ 200 | ≤ 200 | 200 to 500 |  | 
COc1cc2ncnc(-c3ccc(NC(=O)Cc4ccc(C(F)(F)F)cc4)cc3)c2cc1O[C@@H]1CCOC1 [Example 125, (R)-N-(4-(7-methoxy-6-((tetrahydrofuran-3-yl)oxy)quinazolin-4-yl)phenyl)-2-(4-(trifluoromethyl)phenyl)acetamide] |  | ≤ 200 |  |  |  | > 500 | > 500 | 
COc1cc2ncnc(-c3ccc(NC(=O)Cc4ccc(C(F)(F)F)cc4)cc3)c2cc1OCCCN1CCN(C)CC1 [Example 126, N-(4-(7-methoxy-6-(3-(4-methylpiperazin-1-yl)propoxy)quinazolin-4-yl)phenyl)-2-(4-(trifluoromethyl)phenyl)acetamide] |  | ≤ 200 |  |  |  | ≤ 200 | ≤ 200 | 
COc1cc2ncnc(-c3ccc(NC(=O)Cc4ccc(C(F)(F)F)cc4)cc3)c2cc1OCC1CCCNC1 (stereo not drawn) [Example 133, N-(4-(7-methoxy-6-(piperidin-3-ylmethoxy)quinazolin-4-yl)phenyl)-2-(4-(trifluoromethyl)phenyl)acetamide] |  | ≤ 200 |  |  |  | 200 to 500 | > 500 | 
COc1cc2ncnc(-c3ccc(NC(=O)Cc4ccc(C(F)(F)F)cc4)cc3)c2cc1OCCCN1CC2(CCOCC2)C1 [Example 151, N-(4-(6-(3-(7-oxa-2-azaspiro[3.5]nonane-2-yl)propoxy)-7-methoxyquinazolin-4-yl)phenyl)-2-(4-(trifluoromethyl)phenyl)acetamide] | ≤ 50 | ≤ 200 | ≤ 50 | ≤ 200 | ≤ 200 |  |  | 
